# Data taken from article PMC11995724, “Antibiotic target discovery by integrated phenotypic and activity-based profiling of electrophilic fragments” (Cell chemical biology, 2025).
# Assay: in vitro
# Conditions: human, hek293t cells
row,SMILES,"viability at 48 h, 25 µM [%]"
1,"CC1CCCCC1NC(=O)C(C#N)=CC=Cc1ccccc1[N+](=O)[O-] (centres unmarked) [8-F12, 2-cyano-N-(2-methylcyclohexyl)-5-(2-nitrophenyl)penta-2,4-dienamide]",36
2,"CCn1cc(CN(C(=O)CCl)[C@H]2CC[C@H](C)CC2)cn1 [5-G16, 2-chloro-N-[(1-ethyl-1H-pyrazol-4-yl)methyl]-N-[(1r,4r)-4-methylcyclohexyl]acetamide]",0.893
3,"N#CC(=Cc1ccc2c(c1)OCCO2)C(=O)NCc1ccccc1 [8-H03, N-benzyl-2-cyano-3-(2,3-dihydro-1,4-benzodioxin-6-yl)prop-2-enamide]",127
4,"N#CC(=Cc1cccc([N+](=O)[O-])c1)C(=O)NCc1ccc(Cl)cc1 [8-F16, N-[(4-chlorophenyl)methyl]-2-cyano-3-(3-nitrophenyl)prop-2-enamide]",0.958
5,"C=CC(=O)N1CCC[C@H]1Cn1cc(C2CC2)nn1 [1-L18, 1-[(2S)-2-[(4-cyclopropyl-1H-1,2,3-triazol-1-yl)methyl]pyrrolidin-1-yl]prop-2-en-1-one]",92.2
6,"CNC(=O)C(C#N)=Cc1cc(C)n(-c2cccc3ccccc23)c1C [9-P16, 2-cyano-3-[2,5-dimethyl-1-(naphthalen-1-yl)-1H-pyrrol-3-yl]-N-methylprop-2-enamide]",109
7,"Cn1cc(C=C(C#N)C(=O)N2CCCC2)c(-c2cc3ccccc3o2)n1 [9-D18, 3-[3-(1-benzofuran-2-yl)-1-methyl-1H-pyrazol-4-yl]-2-(pyrrolidine-1-carbonyl)prop-2-enenitrile]",106
8,"O=C(CCl)C1CCC2(CC1)CC2 [10-C17, 2-chloro-1-{spiro[2.5]octan-6-yl}ethan-1-one]",60.1
9,"Cc1ccc(CN(C(=O)CCl)C2CC2)o1 [6-E03, 2-chloro-N-cyclopropyl-N-[(5-methylfuran-2-yl)methyl]acetamide]",0.647
10,"C=CC(=O)N1CCCC(NS(=O)(=O)c2cccc(F)c2)C1 (centres unmarked) [3-G15, 3-fluoro-N-[1-(prop-2-enoyl)piperidin-3-yl]benzene-1-sulfonamide]",58
11,"C=CC(=O)NC1CCOCC1 [2-G17, N-(oxan-4-yl)prop-2-enamide]",93.3
12,"CC(Cl)C(=O)N(C)Cc1cc(C(C)(C)C)[nH]n1 (centres unmarked) [7-B21, N-[(5-tert-butyl-1H-pyrazol-3-yl)methyl]-2-chloro-N-methylpropanamide]",80.5
13,"C=CC(=O)Nc1cc(NC(=O)C2CCC2)ccc1F [2-E10, N-[4-fluoro-3-(prop-2-enamido)phenyl]cyclobutanecarboxamide]",86.7
14,"C=CC(=O)NCC1CCCCN1S(C)(=O)=O (centres unmarked) [1-D17, N-[(1-methanesulfonylpiperidin-2-yl)methyl]prop-2-enamide]",161
15,"C=CC(=O)Nc1sc2c(c1C(=O)c1ccc(C)cc1)CCOC2 [1-J22, N-[3-(4-methylbenzoyl)-4H,5H,7H-thieno[2,3-c]pyran-2-yl]prop-2-enamide]",0.993
16,"CC(=O)NCc1ccc(C(=O)C(C)Cl)s1 (centres unmarked) [10-M04, N-{[5-(2-chloropropanoyl)thiophen-2-yl]methyl}acetamide]",93.5
17,"C=CC(=O)Nc1ccc(C(=O)N2CCCCC2c2n[nH]c(C)n2)cc1 (centres unmarked) [3-E13, N-{4-[2-(5-methyl-1H-1,2,4-triazol-3-yl)piperidine-1-carbonyl]phenyl}prop-2-enamide]",34.9
18,"C=CC(=O)N1CCC(C(=O)N2CCCC2C2OCCO2)CC1 (centres unmarked) [2-L12, 1-{4-[2-(1,3-dioxolan-2-yl)pyrrolidine-1-carbonyl]piperidin-1-yl}prop-2-en-1-one]",48.7
19,"C=CC(=O)NCCn1nnnc1C [2-A03, N-[2-(5-methyl-1H-1,2,3,4-tetrazol-1-yl)ethyl]prop-2-enamide]",110
20,"CC(Cl)C(=O)N1CCOC(c2ccnc(N(C)C)n2)C1 (centres unmarked) [6-L05, 2-chloro-1-{2-[2-(dimethylamino)pyrimidin-4-yl]morpholin-4-yl}propan-1-one]",99.1
